“And” between values parts separate entries of the source, which are not always exact repeats. Identical values can stand only once. “Also recorded” adds a separate entry of the source. Like-named read-outs stand apart in the source and are kept apart here.
How the values were obtained:
[1] = system: COVID-19; parameters: method as in PMID 33264556; settings: trial discontinued in July 2020; cited from earlier work
[2] = system: SARS-CoV-2; test: microbe, parasite or virus in culture; assay type: cell-based
[3] = target: SARS-CoV-2 3CLPro (Severe acute respiratory syndrome coronavirus 2, UniProt P0DTD1); test: biochemical
[4] = target: T1, recombinant SETD2 (Homo sapiens, UniProt Q9BYW2); test: SETD2 Chemiluminescence assay (H3K36 tri-methylation); assay type: biochemical; settings: for SETD2 signal, blank corrected, normalized to positive ctrl: internal control
T1 construct: purchased BPS Bioscience 52060
T1 sequence (Q9BYW2 1418-1714 limits assumed): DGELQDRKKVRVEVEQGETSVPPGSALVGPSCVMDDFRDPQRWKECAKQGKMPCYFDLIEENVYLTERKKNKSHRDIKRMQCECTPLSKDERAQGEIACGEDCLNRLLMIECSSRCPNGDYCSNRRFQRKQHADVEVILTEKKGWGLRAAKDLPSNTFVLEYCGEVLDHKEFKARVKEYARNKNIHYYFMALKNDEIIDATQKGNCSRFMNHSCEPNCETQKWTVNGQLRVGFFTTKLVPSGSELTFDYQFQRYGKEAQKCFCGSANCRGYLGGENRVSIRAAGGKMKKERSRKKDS

[5] = system: SETD2; settings: cited from earlier work
[6] = target: T2, bovine factor Xa (Bos taurus, UniProt P00743); test: Protease inhibitory assay, chromogenic substrate S-2222; assay type: biochemical; settings: 1 = hit, 0 = no hit; screening at 200 µM
T2 construct: bovine factor Xa, Chromogenix, 2 nkat/mL; purchased Chromogenix

[7] = target: T3, human 5-HT1A receptor (Homo sapiens, UniProt P08908); test: GPCR radioligand binding assay, [3H]-8-OH-DPAT displacement, HEK293 membranes
T3 construct: expressed in transfected cells
T3 sequence (P08908 1-422): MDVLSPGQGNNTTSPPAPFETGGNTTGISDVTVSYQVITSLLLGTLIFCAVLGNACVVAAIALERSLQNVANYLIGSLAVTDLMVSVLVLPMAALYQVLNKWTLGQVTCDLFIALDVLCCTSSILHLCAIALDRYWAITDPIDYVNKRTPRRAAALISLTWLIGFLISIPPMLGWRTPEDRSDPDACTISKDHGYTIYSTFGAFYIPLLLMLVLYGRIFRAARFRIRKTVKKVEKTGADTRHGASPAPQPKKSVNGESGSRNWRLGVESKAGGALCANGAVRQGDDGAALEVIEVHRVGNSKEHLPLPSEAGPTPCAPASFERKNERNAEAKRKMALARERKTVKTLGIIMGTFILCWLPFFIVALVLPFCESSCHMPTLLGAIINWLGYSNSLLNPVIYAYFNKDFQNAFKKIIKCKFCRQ

[8] = target: T4, SARS-CoV-2 NSP3 macrodomain (Severe acute respiratory syndrome coronavirus 2, UniProt P0DTD1); test: X-ray fragment screening (XChem, crystal soaking); assay type: binding
[9] = target: T5, human 5-HT6 receptor (Homo sapiens, UniProt P50406); test: GPCR radioligand binding assay, [3H]-LSD displacement, HEK293 membranes
T5 construct: expressed in transfected cells

[10] = target: T4, SARS-CoV-2 NSP3 macrodomain; test: NSP3 macrodomain HTRF assay, displacement of ADP-ribose-conjugated biotin peptide; assay type: binding
[11] = target: T6, human 5-HT7b receptor (Homo sapiens, UniProt P34969); test: GPCR radioligand binding assay, [3H]-5-CT displacement, HEK293 membranes
T6 construct: expressed in transfected cells

[12] = target: T7, human thrombin (Homo sapiens, UniProt P00734); test: Protease inhibitory assay, chromogenic substrate S-2238; assay type: biochemical; settings: 1 = hit, 0 = no hit; screening at 200 µM
T7 construct: human thrombin; purchased Sigma-Aldrich

[13] = 1 = hit, 0 = no hit, tested at 10 µM, hit = 50% or stronger inhibition

T5 sequence (P50406 whole entry): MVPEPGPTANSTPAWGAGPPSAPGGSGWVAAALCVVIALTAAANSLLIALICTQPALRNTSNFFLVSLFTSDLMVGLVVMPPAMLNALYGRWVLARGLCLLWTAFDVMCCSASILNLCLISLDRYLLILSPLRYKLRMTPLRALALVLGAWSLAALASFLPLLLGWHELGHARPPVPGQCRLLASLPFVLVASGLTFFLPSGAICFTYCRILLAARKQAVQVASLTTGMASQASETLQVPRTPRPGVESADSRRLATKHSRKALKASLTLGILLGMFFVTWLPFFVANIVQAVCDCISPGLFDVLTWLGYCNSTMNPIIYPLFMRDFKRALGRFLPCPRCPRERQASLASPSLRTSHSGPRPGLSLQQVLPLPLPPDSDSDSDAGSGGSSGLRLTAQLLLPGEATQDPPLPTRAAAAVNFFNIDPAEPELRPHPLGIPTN
T6 sequence (P34969 1-432): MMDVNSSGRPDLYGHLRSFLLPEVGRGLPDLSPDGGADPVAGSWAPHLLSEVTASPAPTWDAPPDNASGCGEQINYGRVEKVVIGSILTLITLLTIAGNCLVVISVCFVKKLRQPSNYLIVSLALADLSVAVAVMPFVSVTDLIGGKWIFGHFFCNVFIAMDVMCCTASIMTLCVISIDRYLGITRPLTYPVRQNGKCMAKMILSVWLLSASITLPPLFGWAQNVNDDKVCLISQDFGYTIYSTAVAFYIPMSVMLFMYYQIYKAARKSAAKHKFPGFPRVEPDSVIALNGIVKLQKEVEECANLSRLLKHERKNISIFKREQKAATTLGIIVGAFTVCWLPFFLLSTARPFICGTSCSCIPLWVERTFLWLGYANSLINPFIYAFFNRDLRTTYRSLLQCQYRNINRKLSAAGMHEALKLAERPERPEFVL
T2 sequence (P00743 234-492 limits assumed): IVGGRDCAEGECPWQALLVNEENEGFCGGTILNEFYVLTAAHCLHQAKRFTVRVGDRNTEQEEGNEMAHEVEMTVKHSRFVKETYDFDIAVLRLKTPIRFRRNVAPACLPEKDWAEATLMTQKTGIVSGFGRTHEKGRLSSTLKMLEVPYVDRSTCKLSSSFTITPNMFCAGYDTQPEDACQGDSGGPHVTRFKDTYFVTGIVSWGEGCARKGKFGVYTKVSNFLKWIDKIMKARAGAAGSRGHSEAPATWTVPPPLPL
T2 sequence (P00743 41-180 partner limits assumed): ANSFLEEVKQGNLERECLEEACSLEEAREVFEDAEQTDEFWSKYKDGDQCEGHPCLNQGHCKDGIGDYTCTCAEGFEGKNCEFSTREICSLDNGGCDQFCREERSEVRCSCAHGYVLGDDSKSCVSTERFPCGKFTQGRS

## lopinavir/ritonavir
[1]
  clinical trial outcome against COVID-19: ineffectiveness

## CS(=O)(=O)c1ccc(N2CCNCC2)cc1 [SX013]
[2]; 10 uM, Vero E6, replicates
  Inhibition (%): 0% (2×) and 3.199%
  viral copy numbers normalized to the control (untreated infected cells): 1.473 and 0.968 and 1.581
[2]; 100 uM, Vero E6, replicates
  Inhibition (%): 10.36% and 9.981% and 0%
  viral copy numbers normalized to the control (untreated infected cells): 0.8964 and 0.9002 and 2.418
[2]; 250 uM, Vero E6, replicates
  Inhibition (%): 47.65% and 50.9%
  viral copy numbers normalized to the control (untreated infected cells): 0.5487 and 0.5235 and 0.491
[2]; 500 uM, Vero E6, replicates
  Inhibition (%): 62.09% and 74.66%
  viral copy numbers normalized to the control (untreated infected cells): 0.2563 and 0.3791 and 0.2534
[2]; 750 uM, Vero E6, replicates
  Inhibition (%): 96.1% and 86.32%
  viral copy numbers normalized to the control (untreated infected cells): 0.06859 and 0.03899 and 0.1368
[2]; 1000 uM, Vero E6, replicates
  Inhibition (%): 99.81%
  viral copy numbers normalized to the control (untreated infected cells): 0.003839 and 0.001919 and 0
[2]; 1500 uM, Vero E6, replicates
  Inhibition (%): 99.97%
  viral copy numbers normalized to the control (untreated infected cells): 0 (2×) and 0.000289
[2]; Severe acute respiratory syndrome coronavirus 2, Vero C1008, 250 uM, Vero E6, replicates
  inhibition at 250 µM: 45.1%
[2]; Severe acute respiratory syndrome coronavirus 2, Vero C1008, 500 uM, Vero E6, replicates
  inhibition at 500 µM: 74.4%
[2]; Severe acute respiratory syndrome coronavirus 2, Vero C1008, 750 uM, Vero E6, replicates
  inhibition at 750 µM: 93.1%
[2]; Severe acute respiratory syndrome coronavirus 2, Vero C1008, 1000 uM, Vero E6, replicates
  inhibition at 1000 µM: 99.6%
[2]; Severe acute respiratory syndrome coronavirus 2, Vero C1008, 1500 uM, Vero E6, replicates
  inhibition at 1500 µM: 100%
[2]; Severe acute respiratory syndrome coronavirus 2, Vero C1008, 48 h, read-out: EC50, blocking SARS-CoV-2 replication, Vero E6 cells, 48 h post infection
  EC50: 304 µM
[2]; read-out: EC50, blocking SARS-CoV-2 replication, Vero E6 cells, 48 h post infection
  EC50: 304 µM
[3]
  IC50: 31 µM

## Nc1ncnc2c1ncn2[C@@H]1O[C@H](C[C@@H](N)CC[C@H](N)C(=O)O)[C@@H](O)[C@H]1O [Sinefungin, reference compound]
[4]; 200 µM Sinefungin
  inhibition of SETD2 activity (control, in words): complete inhibition
[4]; 200 µM
  SETD2 signal, blank corrected, normalized to positive ctrl: 0.074
[4]; 800 µM
  SETD2 signal, blank corrected, normalized to positive ctrl: 0.0136
[5]
  activity as inhibitor of SETD2 (in words): moderately active

## Nc1nnc2ccccn12 [SX005]
[6]
  experimental hit status, Factor Xa: 0
[2]; Severe acute respiratory syndrome coronavirus 2, Vero C1008, read-out: Inhibition (%) of viral copy numbers, 1000 uM, replicates
  inhibition at 1000 µM: 83.7%
[2]; infected Vero E6 cells
  antiviral activity in the cellular assay (in words): high micromolar range; also recorded: Significant antiviral activities
[7]; 10 µM, read-out: 5-HT1A % Inhibition by plate position
  inhibition at 10 µM: 0%
[7]; [13]
  experimental hit status, 5-HT1: 0
[7]; 5-HT1A, average of exp_1 and exp_2, read-out: %inh 5-HT1A average
  inhibition at 10 µM: -14%
[7]; 5-HT1A, average, values below 0 and above 100% were set as 0 and 100, read-out: %inh 5-HT1A corrected*
  inhibition at 10 µM: 0%
[7]; 5-HT1A, replicate exp_1, read-out: %inh 5-HT1A exp_1
  inhibition at 10 µM: 4%
[7]; 5-HT1A, replicate exp_2, read-out: %inh 5-HT1A exp_2
  inhibition at 10 µM: -32%
[8]
  X-ray screen result, binding site: identified in the active site
[9]; 10 µM, read-out: 5-HT6 % Inhibition by plate position
  inhibition at 10 µM: 40%
[9]; [13]
  experimental hit status, 5-HT6: 0
[9]; 5-HT6, average of exp_1 and exp_2, read-out: %inh 5-HT6 average
  inhibition at 10 µM: 40%
[9]; 5-HT6, average, values below 0 and above 100% were set as 0 and 100, read-out: %inh 5-HT6 corrected*
  inhibition at 10 µM: 40%
[9]; 5-HT6, replicate exp_1, read-out: %inh 5-HT6 exp_1
  inhibition at 10 µM: 45%
[9]; 5-HT6, replicate exp_2, read-out: %inh 5-HT6 exp_2
  inhibition at 10 µM: 35%
[10]; 39.0625 µM, replicates
  % SARS-CoV-2 macrodomain inhibition: 11.4%
  inhibition at 39.0625 µM: 10.2%
[10]; 78.125 µM, replicates
  % SARS-CoV-2 macrodomain inhibition: 23.5%
  inhibition at 78.125 µM: 22.6%
[10]; 156.25 µM, replicates
  % SARS-CoV-2 macrodomain inhibition: 31.2%
  inhibition at 156.25 µM: 27.9%
[10]; 312.5 µM, replicates
  % SARS-CoV-2 macrodomain inhibition: 41.8%
  inhibition at 312.5 µM: 41%
[10]; 625 µM, replicates
  % SARS-CoV-2 macrodomain inhibition: 55.4%
  inhibition at 625 µM: 54.1%
[10]; 1250 µM, replicates
  % SARS-CoV-2 macrodomain inhibition: 64.7%
  inhibition at 1250 µM: 65%
[10]; 2500 µM, replicates
  % SARS-CoV-2 macrodomain inhibition: 70.5%
  inhibition at 2500 µM: 72%
[10]; 5000 µM, replicates
  % SARS-CoV-2 macrodomain inhibition: 74.9%
  inhibition at 5000 µM: 74.7%
[10]; IC50, SARS-CoV-2 macrodomain inhibition
  IC50: 465 µM
[11]; 10 µM, read-out: 5-HT7 % Inhibition by plate position
  inhibition at 10 µM: 0%
[11]; [13]
  experimental hit status, 5-HT7: 0
[11]; 5-HT7, average of exp_1 and exp_2, read-out: %inh 5-HT7 average
  inhibition at 10 µM: -0.039%
[11]; 5-HT7, average, values below 0 and above 100% were set as 0 and 100, read-out: %inh 5-HT7 corrected*
  inhibition at 10 µM: 0%
[11]; 5-HT7, replicate exp_1, read-out: %inh 5-HT7 exp_1
  inhibition at 10 µM: -4.51%
[11]; 5-HT7, replicate exp_2, read-out: %inh 5-HT7 exp_2
  inhibition at 10 µM: 4.43%
[12]
  experimental hit status, Thrombin: 0
[4]; 1 = hit, 0 = no hit
  experimental hit status, SETD2: 0

Source: publication PMC8159961, “Exploring protein hotspots by optimized fragment pharmacophores” (Nature Communications, 2021)
